Test results from publication PMC7914298 (Bioorganic & medicinal chemistry, 2020).
Where two headings read alike, the source gives them in different places.

What was measured:
E. coli GroEL/ES = E. coli GroEL/ES (Escherichia coli, UniProt P0A6F5); test: In situ NfsB-GroEL/ES-dMDH refolding assay; format: biochemical; conditions: activated by E. coli NfsB
[1] = test system: human FHs 74 Int small intestinal cells; test: Alamar Blue cell viability assay, FHs 74 Int small intestine cells; conditions: for Cytotoxicity to human cells (in words): FHs 74 Int shown, FHC colon cells similar
NEB 5-alpha E. coli = format: cell-based, Escherichia coli; conditions: 12-day serial passage, duplicates
[2] = test system: resistant E. coli strains; test: Cross-resistance testing of resistant E. coli strains; format: cell-based, Escherichia coli; conditions: for Cross-resistance of 17-resistant E. coli strains (in words): strains initially made resistant to 17; for Cross-resistance of nitrofurantoin-resistant E. coli strains (in words): strains initially made resistant to nitrofurantoin; for Cross-resistance of nifuroxazide-resistant E. coli strains (in words): strains initially made resistant to nifuroxazide
human FHC colon cells = test: Alamar Blue cell viability assay, FHC colon cells; conditions: CC50 FHC colon cells over EC50 E. coli proliferation
[3] = target: T1, native MDH (malate dehydrogenase) (Sus scrofa, UniProt P00346); test: Native MDH enzymatic activity counter-screen; format: biochemical
T1 sequence (P00346 25-338): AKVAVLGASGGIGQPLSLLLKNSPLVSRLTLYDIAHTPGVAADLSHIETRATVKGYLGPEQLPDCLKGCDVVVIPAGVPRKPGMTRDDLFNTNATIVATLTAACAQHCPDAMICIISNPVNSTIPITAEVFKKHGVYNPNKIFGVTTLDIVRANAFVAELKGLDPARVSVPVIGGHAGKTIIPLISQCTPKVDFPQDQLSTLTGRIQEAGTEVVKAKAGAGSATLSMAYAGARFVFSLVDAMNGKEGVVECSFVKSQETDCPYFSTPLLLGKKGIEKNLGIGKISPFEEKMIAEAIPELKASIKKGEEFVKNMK

[4] = target: T1, native MDH (malate dehydrogenase); format: biochemical
[5] = test system: Klebsiella pneumoniae (ATCC #13883); test: K. pneumoniae bacterial proliferation assay; format: cell-based
[6] = test system: human mitochondrial HSP60/10 chaperonin system; conditions: ref [59], [84]; cited from earlier work

E. coli GroEL/ES, sequence (P0A6F5 2-548): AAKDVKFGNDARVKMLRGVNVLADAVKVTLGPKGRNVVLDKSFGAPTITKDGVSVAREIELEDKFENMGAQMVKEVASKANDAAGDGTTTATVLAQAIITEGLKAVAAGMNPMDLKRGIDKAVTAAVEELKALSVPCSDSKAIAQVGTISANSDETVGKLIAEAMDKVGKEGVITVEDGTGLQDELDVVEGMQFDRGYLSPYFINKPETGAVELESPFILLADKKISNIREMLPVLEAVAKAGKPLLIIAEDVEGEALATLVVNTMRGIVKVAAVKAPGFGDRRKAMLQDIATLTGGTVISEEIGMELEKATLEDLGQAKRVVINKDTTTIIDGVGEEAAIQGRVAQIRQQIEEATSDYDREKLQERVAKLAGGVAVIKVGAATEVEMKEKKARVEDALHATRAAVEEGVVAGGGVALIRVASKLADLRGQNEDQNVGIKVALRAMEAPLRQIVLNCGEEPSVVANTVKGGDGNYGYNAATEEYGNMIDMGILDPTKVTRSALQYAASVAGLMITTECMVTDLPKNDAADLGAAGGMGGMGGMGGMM

| SMILES | Cytotoxicity to human cells (in words) [1] | Time for E. coli to develop intermediate resistance (NEB 5-alpha E. coli) [days] | IC50 [3] [µM] | IC50 [4] [µM] | also measured |
| --- | --- | --- | --- | --- | --- |
| O=C(N/N=C/c1ccc([N+](=O)[O-])o1)c1ccc(O)cc1 [Nifuroxazide] | low to no cytotoxicity | 3 to 5 | – | – | GroEL/ES inhibition in the presence of NfsB (in words) (E. coli GroEL/ES): weak to moderate; Cross-resistance of 17-resistant E. coli strains (in words) [2]: susceptible; Cross-resistance of nitrofurantoin-resistant E. coli strains (in words) [2]: still sensitive |
| O=C1CN(/N=C/c2ccc([N+](=O)[O-])o2)C(=O)N1 [Nitrofurantoin, reference compound] | low to no cytotoxicity | 3 to 5 | > 63 | > 56 | GroEL/ES inhibition in the presence of NfsB (in words) (E. coli GroEL/ES): weak to moderate; SI (CC50 / EC50) Intestine ([1]; CC50 FHs 74 Int cells over EC50 E. coli proliferation): >146; SI (CC50 / EC50) Colon (human FHC colon cells): >146; Cross-resistance of 17-resistant E. coli strains (in words) [2]: susceptible to nifuroxazide, but not nitrofurantoin; Cross-resistance of nifuroxazide-resistant E. coli strains (in words) [2]: cross-resistant |
| O=C(N/N=C/c1ccc([N+](=O)[O-])o1)c1cccs1 [compound 16] | low to no cytotoxicity | – | > 63 | > 56 | Inhibition of K. pneumoniae (in words) [5]: moderate inhibitors of K. pneumoniae |
| O=C(N/N=C/c1ccc([N+](=O)[O-])o1)c1ccc(Cl)s1 [compound 17] | low to no cytotoxicity | 3 to 5 | > 63 | > 56 | Inhibition of K. pneumoniae (in words) [5]: moderate inhibitors of K. pneumoniae; Cross-resistance of nifuroxazide-resistant E. coli strains (in words) [2]: cross-resistant; Cross-resistance of nitrofurantoin-resistant E. coli strains (in words) [2]: still sensitive |
| O=C(N/N=C/c1ccc([N+](=O)[O-])o1)c1ccccc1 [compound 18] | – | – | > 63 | > 56 | – |
| O=C(N/N=C/c1ccc([N+](=O)[O-])o1)c1ccncc1 [compound 19] | – | – | > 63 | > 56 | – |
| COc1ccc(C(=O)N/N=C/c2ccc([N+](=O)[O-])o2)cc1 [compound 20] | low to no cytotoxicity | – | > 63 | > 56 | SI (CC50 / EC50) Colon (human FHC colon cells): >53 |
| CN(C)c1ccc(C(=O)N/N=C/c2ccc([N+](=O)[O-])o2)cc1 [compound 21] | – | – | > 63 | > 56 | – |
| Cc1ccc(C(=O)Nc2ccc(S(=O)(=O)O)c3cc(S(=O)(=O)O)cc(S(=O)(=O)O)c23)cc1NC(=O)c1cccc(NC(=O)Nc2cccc(C(=O)Nc3cc(C(=O)Nc4ccc(S(=O)(=O)O)c5cc(S(=O)(=O)O)cc(S(=O)(=O)O)c45)ccc3C)c2)c1 [suramin] | – | – | – | – | HSP60/10 inhibition (in words) [6]: potent HSP60/10 inhibitor |
